# Reference: publication PMC1851987, “Identification of the Endogenous Key Substrates of the Human Organic Cation Transporter OCT2 and Their Implication in Function of Dopaminergic Neurons” (PLoS ONE, 2007)
# Residue numbers refer to the chain shown, from its start.
# Tests used:
# SH-SY5Y cells = test: MTT reduction cell viability assay, SH-SY5Y cells; type: cell-based, human
# Description: (§1) Cell viability was assessed in HEK-293 cells, human dopaminergic neuroblastoma cells (SH-SY5Y) and human glioblastoma cells (HTZ-146) by the MTT test as described.[22] […] For indication of metabolic activity, cells were treated with MTT reagent (15 µl of 1 mg/ml stock solution per well) for 1 h, and after drying of culture plates for 1 h at 37°C, the resulting formazan dye was extracted with isopropanol/HCl (100 µl 0.04 mol/l per well) and absorbance was determined spectrophotometrically at 568 nm. Results were in agreement with the data obtained by the tryptan blue exclusion method (data not shown).
# [1] = biological target: T1, organic cation transporter OCT2 (wild-type 400R) (Homo sapiens, UniProt O15244, S270A); test: Specific uptake into OCT2 (wild-type) transfected HEK-293 cells vs empty vector, LC-MS-MS; conditions: for influx clearance Clin: specific uptake after incubation with 10 µmol/l, mean (s.e.m.), n = 3
# T1 sequence (O15244 1-555 S270A): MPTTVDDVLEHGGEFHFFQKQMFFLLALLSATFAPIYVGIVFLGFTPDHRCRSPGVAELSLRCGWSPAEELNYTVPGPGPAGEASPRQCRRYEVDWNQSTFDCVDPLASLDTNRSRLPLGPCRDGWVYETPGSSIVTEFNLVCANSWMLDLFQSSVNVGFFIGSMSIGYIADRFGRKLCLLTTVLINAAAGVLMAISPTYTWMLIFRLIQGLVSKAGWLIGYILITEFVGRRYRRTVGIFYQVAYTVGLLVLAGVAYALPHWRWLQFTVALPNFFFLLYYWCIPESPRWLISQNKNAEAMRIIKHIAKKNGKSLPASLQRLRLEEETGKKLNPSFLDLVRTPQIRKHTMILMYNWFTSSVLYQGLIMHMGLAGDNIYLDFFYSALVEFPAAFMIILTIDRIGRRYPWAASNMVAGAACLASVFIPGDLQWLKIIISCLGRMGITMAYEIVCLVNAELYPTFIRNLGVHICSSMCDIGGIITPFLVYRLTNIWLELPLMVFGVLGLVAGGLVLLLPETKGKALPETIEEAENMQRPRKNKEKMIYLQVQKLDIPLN
# HTZ-146 cells = test: MTT reduction cell viability assay, HTZ-146 cells; type: cell-based, human
# Description: as §1
# OCT2 variant A270S = biological target: T2, OCT2 variant A270S (Homo sapiens, UniProt O15244); test: Specific uptake into HEK-293 cells transfected with OCT2 variant A270S
# T2 sequence (O15244 1-555): T1 sequence (O15244 1-555 S270A) with A270S
# Description: The cDNAs encoding the organic cation transporters OCT1 (GenBank accession no. NM_003057), OCT2 (NM_003058), and EMT (NM_021977) were amplified by RT-PCR from human liver, kidney, and placenta total RNA respectively, and subcloned into the eukaryotic expression vector pcDNA3. The cDNA encoding the norepinephrine transporter (SLC6A2) was kindly provided by C. Pifl (University of Vienna).
# For uptake experiments, cells were grown on polystyrene dishes of 60 mm diameter to at least 80% confluence. […] Cells were lysed with 1 ml of 4 mmol/l perchloric acid and lysates subjected to LC-MS-MS quantification. Cellular protein content was determined after solubilization of perchloric acid precipitates with 1 ml of […] NaOH using the bicinchoninic assay (BCA Protein Assay Kit, Pierce).
# Chromatographic separations were performed on Hypercarb (5 µm, 50×2.1 mm; Thermo Electron), Aquasil C18 (3 µm, 100×4.6 mm; Thermo Electron), or Hilic columns (5 µm, 100×3.0 mm; Waters Atlantis) by isocratic or gradient elution using 0.1% aqueous formic acid (A) and acetonitrile or methanol (B) as solvent system. For quantification, SRM transitions of a precursor ion [M+H]^+ into a specific fragment ion (peak area ratios relative to IS) were recorded in positive ESI mode at 1.0–1.5 mTorr collision pressure and 10–40 eV collision energy. […]
# [2] = pre-treated 1 h with 10 µmol/l cyclo(his-pro)
"dependence of specific uptake on pH ([1]; 10 µmol/l, 3 min incubation)","Clin (OCT2 variant A270S; incubation with 10 µmol/l, mean (s.e.m.))",SMILES,"EC50 (SH-SY5Y cells; Homo sapiens, SH-SY5Y, 48 h, non-pretreated, read-out: EC50 (95% confidence interval), cell viability) [µM]","N-methylation of intracellular salsolinol (of salsolinol concentration) ([1]; after 60 min of incubation, transfected HEK-293 cells) [%]",influx clearance Clin [1],"EC50 (HTZ-146 cells; Homo sapiens, 48 h, non-pretreated, read-out: EC50 (95% confidence interval), cell viability) [µM]","Km at 1 min (OCT2 variant A270S; human, pH 7.4) [µM]",effect on glutamate-induced cytotoxicity (SH-SY5Y cells; [2]),"dependence of specific uptake on extracellular sodium concentration ([1]; 10 µmol/l, 3 min incubation, sodium chloride isoosmotically replaced with lithium chloride)",effect on glutamate-induced cytotoxicity (HTZ-146 cells; [2])
,,CC1NCCc2cc(O)c(O)cc21 (centres unmarked) [salsolinol],49,≤ 2.5,18.5 (2.6) µl/mg/min,138,132,,,
pH influenced specific uptake,25.5 (3.3) µl/mg/min,"O=C1NC(Cc2c[nH]cn2)C(=O)N2CCCC12 (centres unmarked) [cyclo(his-pro), histidyl-proline diketopiperazine]",,,25.0 (4.2) µl/mg/min,,,prevented,independent of extracellular sodium concentration,prevented
